In US7005431B2, “Imidazo-triazine derivatives as ligands for gaba receptors” (Merck Sharp & Dohme Ltd., priority 2002, dated 2006):

SMILES | melting point
CC(C)(O)c1cnn2c(-c3ccc(F)c(-c4c(F)cccc4C#N)c3F)cnc2n1 [Example 2, 3′-[3-(1-Hydroxy-1-methylethyl)imidazo[1,2-b][1,2,4]triazin-7-yl]-6,2′,6′-trifluorobiphenyl-2-carbonitrile] | 177 to 179 °C
CC(C)(F)c1cnn2c(-c3ccc(F)c(-c4ccc(F)cc4C#N)c3F)cnc2n1 [Example 3, 3′-[3-(1-Fluoro-1-methylethyl)imidazo[1,2-b][1,2,4]triazin-7-yl]-4,2′,6′-trifluorobiphenyl-2-carbonitrile] | 166 to 169 °C
